# Test results from patent US5032398A, “Selective modification of the catalytic subunit of pertussis toxin” (priority 1986, dated 1991).
# Tests used:
# Assay type in all cases: biochemical
# pertussis toxin [1] = molecular target: T1, pertussis toxin (Bordetella pertussis, UniProt P04977); experiment: Screen of compounds at 1 mM for stimulation of the NADase activity of the toxin (Example Three); settings: for Fractional Activation / Emax at 1000 µM: compound 1 mM, relative to 1 mM ATP, toxin preincubated with 20 mM DTT and 2% CHAPS, 3 h at 37° C, average ± half range of two trials; for Emax at 1000 µM: read-out: Fractional Activation
# T1 sequence (P04977 35-269 limits assumed): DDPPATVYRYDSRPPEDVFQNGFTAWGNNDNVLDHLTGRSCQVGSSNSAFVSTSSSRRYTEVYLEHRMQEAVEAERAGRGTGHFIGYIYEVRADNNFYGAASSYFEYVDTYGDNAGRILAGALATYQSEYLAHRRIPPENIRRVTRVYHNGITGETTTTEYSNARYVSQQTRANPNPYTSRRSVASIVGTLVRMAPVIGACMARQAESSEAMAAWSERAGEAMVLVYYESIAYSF
# Text: The ADP-ribosylating activity of the pertussis toxin can be detected as a nicotinamide-adenine dinucleotide-glycohydrolase (NADase) activity, which can be conveniently assayed through the use of [nicotinamide-^14 C] or [nicotinamide-^3 H] NAD. NAD consists of ADP-ribose linked to nicotinimide, and thus the extent of the release of ADP-ribose from NAD is an indication of the ability of the toxin to cause ill effects. In conducting this assay of the hydrolysis of labelled NAD, ion-exchange column chromatography was employed to resolve the product from the substrate according to the method described by Moss et al., J. Biol. Chem. 258, 11879 (1983) which is incorporated herein by reference. However, several modifications to this method were employed. First, a QAE-Sephadex resin was employed, as was a [nicotinamide-^3 H] NAD. Specifically, a 2 ml QAE-Sephadex column was first washed with 10 ml 1NHCl, followed by 10 ml H2 O, 20 ml 0.5M Tris-HCl pH 7.0, and 40 ml H2 O. [^3 H] NAD was applied, and the column washed with 20 ml water to elute impurities. Purified [^3 H] NAD was eluted with 0.25M NaCl, and stored in small aliquots at -70° C. The purified [^3 H] NAD contributed 50 mM NaCl (final concentration) to the NADase assays.
# Before the end of the reaction, 2 ml QAE-Sephadex columns were treated with 10 ml 0.1M imidazole-HCl pH 7.0 with 1.0M NaCl, followed by 40 ml water. The NADase reaction (in 100 μl) was terminated by adding 0.85 ml of ice-cold water, and the entire 0.95 ml was pipetted into a treated QAE column. The labelled nicotinamide was then eluted with 3 ml of water directly into a scintillation vial and counted. The absorbed labelled NAD was then eluted into radioactive waste with 10 ml 0.1M imidazole-HCl pH 7.0 with 1.0M NaCl, and the column stored partially immersed in a water bath until the next assay.
# (§1) The pertussis toxin in the Examples comprised 50 μg of the toxin in a 500 μl solution of 10 mM sodium phosphate-50 mM sodium chloride-water solution having a pH of 7. The enzymatic activity was detected as the hydrolysis of nicotinamide labelled NAD and ion-exchange column chromatography to resolve the product from the substrate. Unless otherwise noted, the assay was initiated by adding 0.5 to 2.5 μg of the toxin to a reaction mixture for a final volume of 100 μl. The NADase reaction was terminated by adding 0.85 ml of ice-cold water. The entire 0.95 ml was then pipetted into a QAE-Sephadex column (chloride form) and the labelled nicotinamide eluted with 3 ml of water directly into a scintillation vial and counted. […] One unit of NADase activity is defined as 1 pmol NAD hydrolyzed per hour.
# The various compounds were screened for the ability to stimulate the NADase activity of the toxin when present in a concentration of 1 mM. Before assay the toxin (1 μg per assay) was incubated at 37° C. for ten minutes with 20 mM DTT and 2 weight percent CHAPS. Assays were for three hours at 37° C., and fractional activation is defined as activity of the compound less the activity in the absence of an activator divided by the activity in the presence of 1 mM ATP less activity in the absence of the activator. The value given is the average plus one-half the range for two separate trials. In each trial, duplicates were measured. […] The results are shown in Table II, wherein P denotes phosphate.
# pertussis toxin [2] = molecular target: T1, pertussis toxin; experiment: Activation constants (A0.5) of polyphosphates by NADase assay; settings: for EC50 / fraction of the ATP effect: in the presence of a mild detergent, FIGS. 1A and 1B; for EC50: read-out: activation constants (A0.5)
# Procedure: In the description herein, activation constants for the substances may be expressed by a numerical value (A0.5) by using an NADase assay.
# as §1
# pertussis toxin [3] = molecular target: T1, pertussis toxin; experiment: Inactivation of NADase activity by sulfhydryl reagents, 6 minutes or 18 hours at 0-4° (Example Eight); settings: first incubation: ATP, DTT, CHAPS
# Procedure: Pertussis toxin was incubated at 37° C. for fifteen minutes as described in Example Six, and then a second incubation was begun by adding 10 μl buffer A with or without 12.5 mM iodoacetate, mixing the contents of the tube and lowering the temperature to 30° C. After fifteen minutes, the tubes were shifted to an ice bath for ten minutes. A third incubation was then begun by adding 10 μl buffer A containing 200 mM DTT to those tubes containing iodoacetate to scavenge the iodoacetate. To those tubes not containing iodoacetate during the second incubation, a mixture of 200 mM DTT and 12.5 mM iodoacetate in buffer A, previously incubated for an hour on ice, was added. The third incubation was continued for one hour on ice.
# The contents of each tube were then assayed for NADase activity by adding 40 μl of a reaction mix consisting of buffer A containing carbon-14 labelled NAD (final concentration in the 100 μl final volume was 25 μM), and 50 mM sodium chloride. Different reaction mixtures with various additions were used, so that in all tubes the final concentration of ATP was 1 mM and CHAPS was 1 weight percent. The assay was conducted at 37° C. for sixty minutes, and the released labelled nicotinimide was isolated and counted. The iced controls were formed by incubating pertussis toxin (1 μg) on ice in 10 mM sodium phosphate (pH 7) and 50 mM sodium chloride during the first three incubations. […] The first three incubations were done under a nitrogen atmosphere using degassed conditions, and the second and third incubations were done under subdued light.
# The procedure followed in Example Seven was repeated for this study, except that N-ethylmaleimide, chloroacetamide or chloroacetate were substituted for iodoacetate. After the 30° C. incubation, the tubes were either incubated for six minutes or eighteen hours at 0°-4° C. before the 10 μl of 200 mM DTT (with or without quenched reagent) was added. Those tubes receiving the DTT after six minutes were incubated for nineteen hours at 0°-4° C. prior to the NADase assay. Those receiving the DTT after eighteen hours were incubated with DTT for one hour, as in Example Seven. The tubes were then assayed for NADase activity at the same time.
compound,measurement,setting,value
"O=P(O)(O)O [P, phosphate]","Stimulation (activation) of pertussis toxin, in words",pertussis toxin [1],ineffective
same,Fractional Activation,pertussis toxin [1],0.01 ± .01
Nc1ncnc2c1ncn2[C@@H]1O[C@H](COP(=O)(O)OP(=O)(O)O)[C@@H](O)[C@H]1O [ADP],"Stimulation (activation) of pertussis toxin, in words",pertussis toxin [1],effective
same,Emax at 1000 µM,pertussis toxin [1],107 ± 6%
same,EC50,pertussis toxin [2],6 µM
Nc1ccn([C@@H]2O[C@H](COP(=O)(O)OP(=O)(O)OP(=O)(O)O)[C@@H](O)[C@H]2O)c(=O)n1 [CTP],Emax at 1000 µM,pertussis toxin [1],103 ± 9%
"O=P(O)(O)OP(=O)(O)OP(=O)(O)O [tripoly-P, tripolyphosphate]",Fractional Activation,pertussis toxin [1],0.98 ± .14
same,fraction of the ATP effect,pertussis toxin [2],0.6
CC(OP(=O)(O)O)C(N)C(=O)O (centres unmarked) [threonine-P],Emax at 1000 µM,pertussis toxin [1],1 ± 1%
Cc1ncc(COP(=O)(O)O)c(C=O)c1O [pyridoxal-P],Emax at 1000 µM,pertussis toxin [1],53 ± 6%
Nc1nc2c(ncn2[C@@H]2O[C@H](COP(=O)(O)OP(=O)(O)OP(=O)(O)O)[C@@H](O)[C@H]2O)c(=O)[nH]1 [GTP],Emax at 1000 µM,pertussis toxin [1],87 ± 1%
same,EC50,pertussis toxin [2],35 µM
NC(=O)CCl [chloroacetamide],NADase activity,pertussis toxin [3]; 6 minutes at 0-4°,76 pmol per μg per hour
same,percent of activity with no addition to second incubation,pertussis toxin [3]; 6 minutes at 0-4°,79%
same,NADase activity,pertussis toxin [3]; 18 hours at 0-4°,35 pmol per μg per hour
same,percent of activity with no addition to second incubation,pertussis toxin [3]; 18 hours at 0-4°,36%
O=c1ccn([C@@H]2O[C@H](COP(=O)(O)OP(=O)(O)OP(=O)(O)O)[C@@H](O)[C@H]2O)c(=O)[nH]1 [UTP],Emax at 1000 µM,pertussis toxin [1],92 ± 3%
same,EC50,pertussis toxin [2],15 µM
"O=P1([O-])OP(=O)([O-])OP(=O)([O-])O1.[Na+].[Na+].[Na+] [trimeta-P, trimetaphosphate]",Fractional Activation,pertussis toxin [1],0.69 ± .22
same,fraction of the ATP effect,pertussis toxin [2],0.3
same,EC50,pertussis toxin [2],≥ 260 µM
NC(Cc1ccc(OP(=O)(O)O)cc1)C(=O)O (centres unmarked) [tyrosine-P],Emax at 1000 µM,pertussis toxin [1],2 ± 2%
"O=P(O)(O)OP(=O)(O)O [pyro-P, pyrophosphate]","Stimulation (activation) of pertussis toxin, in words",pertussis toxin [1],effective
same,Fractional Activation,pertussis toxin [1],0.85 ± .11
same,fraction of the ATP effect,pertussis toxin [2],0.7
O=C(O)CCl [chloroacetate],NADase activity,pertussis toxin [3]; 6 minutes at 0-4°,86 pmol per μg per hour
same,percent of activity with no addition to second incubation,pertussis toxin [3]; 6 minutes at 0-4°,91%
same,NADase activity,pertussis toxin [3]; 18 hours at 0-4°,85 pmol per μg per hour
same,percent of activity with no addition to second incubation,pertussis toxin [3]; 18 hours at 0-4°,87%
NC(COP(=O)(O)O)C(=O)O (centres unmarked) [serine-P],Emax at 1000 µM,pertussis toxin [1],-4 ± 2%
O=c1[nH]cnc2c1ncn2[C@@H]1O[C@H](COP(=O)(O)OP(=O)(O)OP(=O)(O)O)[C@@H](O)[C@H]1O [ITP],Emax at 1000 µM,pertussis toxin [1],85 ± 1%
Nc1ncnc2c1ncn2[C@@H]1O[C@H](COP(=O)(O)O)[C@@H](O)[C@H]1O [AMP],Emax at 1000 µM,pertussis toxin [1],26 ± 9%
O=P(O)(O)OC(CO)CO [2-glycerol-P],Emax at 1000 µM,pertussis toxin [1],-1 ± 3%
Nc1ncnc2c1ncn2[C@@H]1O[C@H](CO)[C@@H](O)[C@H]1O [adenosine],"Stimulation (activation) of pertussis toxin, in words",pertussis toxin [1],ineffective
same,Emax at 1000 µM,pertussis toxin [1],2 ± 2%
same,Effect on the dose-response relationship of ATP or pyrophosphate,pertussis toxin [2]; adenosine 1 mM,failed to significantly alter
"O=P(O)(O)OC[C@H]1OC(O)[C@H](O)[C@@H](O)[C@@H]1O (some centres unmarked) [glucose-6-P, glucose 6-phosphate]","Stimulation (activation) of pertussis toxin, in words",pertussis toxin [1],ineffective
same,Emax at 1000 µM,pertussis toxin [1],-3 ± 2%
"O=P(O)(O)OP(=O)(O)OP(=O)(O)OP(=O)(O)O [tetrapoly-P, tetrapolyphosphate]",Fractional Activation,pertussis toxin [1],0.92 ± .12
same,fraction of the ATP effect,pertussis toxin [2],0.4
same,EC50,pertussis toxin [2],≥ 170 µM
